In patent publication EP0349354A1, “Peptides PF10 to PF19 from a retro virus HIV, method for the synthesis of these peptides and their use, particularly in diagnostics” (INSTITUT PASTEUR, priority 1988, dated 1990):

System: anticorps anti-nef
Test: ELISA for detection of anti-nef antibodies on coated peptides or nef
Assay type: binding, humain
Conditions: for nombre de sérums anti-nef positifs ayant réagi: ELISA, out of 31 anti-nef positive sera; for intensité de l'immunoréactivité (OD), Serum 1: Serum 1, anti-nef positive; for intensité de l'immunoréactivité (OD), Serum 1 / intensité de l'immunoréactivité (OD), Serum 2 / intensité de l'immunoréactivité (OD), Serum 3 / intensité de l'immunoréactivité (OD), Serum 4 / intensité de l'immunoréactivité (OD), Serum 5 / intensité de l'immunoréactivité (OD), Serum 6 / intensité de l'immunoréactivité (OD), Serum 7 / intensité de l'immunoréactivité (OD), Serum 8 / intensité de l'immunoréactivité (OD), Serum 9 / intensité de l'immunoréactivité (OD), Serum 10 / intensité de l'immunoréactivité (OD), Serum 11 / intensité de l'immunoréactivité (OD), Serum 12 / intensité de l'immunoréactivité (OD), Serum 13 / intensité de l'immunoréactivité (OD), Serum 14 / intensité de l'immunoréactivité (OD), Serum 15 / intensité de l'immunoréactivité (OD), Serum 16 / intensité de l'immunoréactivité (OD), Serum 17 / intensité de l'immunoréactivité (OD), Serum 18 / intensité de l'immunoréactivité (OD), Serum 19 / intensité de l'immunoréactivité (OD), Serum 20 / intensité de l'immunoréactivité (OD), Serum 21 / intensité de l'immunoréactivité (OD), Serum 22 / intensité de l'immunoréactivité (OD), Serum 23 / intensité de l'immunoréactivité (OD), Serum 24 / intensité de l'immunoréactivité (OD), Serum 25 / intensité de l'immunoréactivité (OD), Serum 26 / intensité de l'immunoréactivité (OD), Serum 27 / intensité de l'immunoréactivité (OD), Serum 28 / intensité de l'immunoréactivité (OD), Serum 29 / intensité de l'immunoréactivité (OD), Serum 30 / intensité de l'immunoréactivité (OD), Serum 31 / intensité de l'immunoréactivité (OD), Serum 32 / intensité de l'immunoréactivité (OD), Serum 33: 500 ng coated per well; for intensité de l'immunoréactivité (OD), Serum 2: Serum 2, anti-nef positive; for intensité de l'immunoréactivité (OD), Serum 3: Serum 3, anti-nef positive; for intensité de l'immunoréactivité (OD), Serum 4: Serum 4, anti-nef positive; for intensité de l'immunoréactivité (OD), Serum 5: Serum 5, anti-nef positive; for intensité de l'immunoréactivité (OD), Serum 6: Serum 6, anti-nef positive; for intensité de l'immunoréactivité (OD), Serum 7: Serum 7, anti-nef positive; for intensité de l'immunoréactivité (OD), Serum 8: Serum 8, anti-nef positive; for intensité de l'immunoréactivité (OD), Serum 9: Serum 9, anti-nef positive; for intensité de l'immunoréactivité (OD), Serum 10: Serum 10, anti-nef positive; for intensité de l'immunoréactivité (OD), Serum 11: Serum 11, anti-nef positive; for intensité de l'immunoréactivité (OD), Serum 12: Serum 12, anti-nef positive; for intensité de l'immunoréactivité (OD), Serum 13: Serum 13, anti-nef positive; for intensité de l'immunoréactivité (OD), Serum 14: Serum 14, anti-nef positive; for intensité de l'immunoréactivité (OD), Serum 15: Serum 15, anti-nef positive; for intensité de l'immunoréactivité (OD), Serum 16: Serum 16, anti-nef positive; for intensité de l'immunoréactivité (OD), Serum 17: Serum 17, anti-nef positive; for intensité de l'immunoréactivité (OD), Serum 18: Serum 18, anti-nef positive; for intensité de l'immunoréactivité (OD), Serum 19: Serum 19, anti-nef positive; for intensité de l'immunoréactivité (OD), Serum 20: Serum 20, anti-nef positive; for intensité de l'immunoréactivité (OD), Serum 21: Serum 21, anti-nef positive; for intensité de l'immunoréactivité (OD), Serum 22: Serum 22, anti-nef positive; for intensité de l'immunoréactivité (OD), Serum 23: Serum 23, anti-nef positive; for intensité de l'immunoréactivité (OD), Serum 24: Serum 24, anti-nef positive; for intensité de l'immunoréactivité (OD), Serum 25: Serum 25, anti-nef positive; for intensité de l'immunoréactivité (OD), Serum 26: Serum 26, anti-nef positive; for intensité de l'immunoréactivité (OD), Serum 27: Serum 27, anti-nef positive; for intensité de l'immunoréactivité (OD), Serum 28: Serum 28, anti-nef positive; for intensité de l'immunoréactivité (OD), Serum 29: Serum 29, anti-nef positive; for intensité de l'immunoréactivité (OD), Serum 30: Serum 30, anti-nef positive; for intensité de l'immunoréactivité (OD), Serum 31: Serum 31, anti-nef positive; for intensité de l'immunoréactivité (OD), Serum 32: Serum 32, anti-nef negative control serum; for intensité de l'immunoréactivité (OD), Serum 33: Serum 33, anti-nef negative control serum
Experimental: Des plaques de microtitration à 96 puits ont été recouvertes une nuit avec 500 ng de protéine nef bactérienne, à 37°C ou avec 500 ng de peptides synthétiques par puits dans 50µl de PBS à pH 7,4. Après saturation avec 400 µl de PBS pH 7,4, contenant 5% de caséine, durant 1 heure à 37°C et lavage avec PBS à pH 7,4, 0,5% de BSA, 0,01% tween, 50 µl de sérums à différentes dilutions ont été ajoutés pendant 2 heures à 37°C. Après le rinçage, 50µl de complexes d'IgG de souris anti-humaine-(H + L)-peroxydase 1:1000 ont été incubés pendant 1 heure à 37°C. Après un nouveau rinçage, 100µl de OPD ont été ajoutés pendant 30mn à température ambiante dans l'obscurité. La réaction de l'enzyme a été arrêtée par addition de 50µl d'acide sulfurique 4N et la densité optique des plaques a été lue à 492 nm/620 nm. Les plaques recouvertes avec la caséine ont été utilisées comme contrôle négatif.
En vue d'étudier la possibilité d'utiliser des peptides synthétiques en tant qu'antigènes pour la détection d'anticorps anti-nef chez des patients infectés par HIV, 8 peptides synthétiques couvrant la totalité de la séquence de la protéine nef de HIV-1 (figure 4) ont été utilisés dans un test ELISA avec 31 sérums anti-nef positifs et 2 sérums anti-nef négatifs utilisés comme contrôle. Les recombinants nef ont été utilisés comme contrôle positif dans les tests ELISA et la caséine a été utilisée comme contrôle négatif. Les résultats de ces expériences sont donnés dans le tableau 4 qui illustre l'essai suivant: Essai ELISA sur 31 sérums anti-nef-positifs et 2 sérums anti-nef- négatifs, soit pré-recouverts avec des peptides synthétiques (PF 11 à PF 18), soit en utilisant nef, la caséine ou un mélange de peptides PF 12 et PF 17. Les sérums ont été sélectionnés au hasard parmi des sérums anti-nef positifs et anti-nefs négatifs testés par la méthode RIA en utilisant ¹²⁵I nef. L'intensité de l'immunoradioactivité est notée "-" pour une densité optique (OD) inférieure à 0,2; "+" pour OD = 0,2 à 0,4; "++" pour OD = 0,4 à 0,8 et "+++" pour OD = 0,8 à 2,0.

XCVGFPVTPQVPLRPMTYKAAVDLSHFLKEKGGLEGLIHSQRRQDILZ [PF14]
nombre de sérums anti-nef positifs ayant réagi: 3 | intensité de l'immunoréactivité (OD), Serum 1: - (pour une densité optique (OD) inférieure à 0,2) | intensité de l'immunoréactivité (OD), Serum 2: - (pour une densité optique (OD) inférieure à 0,2) | intensité de l'immunoréactivité (OD), Serum 3: +++ (pour OD = 0,8 à 2,0) | intensité de l'immunoréactivité (OD), Serum 4: - (pour une densité optique (OD) inférieure à 0,2) | intensité de l'immunoréactivité (OD), Serum 5: - (pour une densité optique (OD) inférieure à 0,2) | intensité de l'immunoréactivité (OD), Serum 6: - (pour une densité optique (OD) inférieure à 0,2) | intensité de l'immunoréactivité (OD), Serum 7: - (pour une densité optique (OD) inférieure à 0,2) | intensité de l'immunoréactivité (OD), Serum 8: - (pour une densité optique (OD) inférieure à 0,2) | intensité de l'immunoréactivité (OD), Serum 9: - (pour une densité optique (OD) inférieure à 0,2) | intensité de l'immunoréactivité (OD), Serum 10: - (pour une densité optique (OD) inférieure à 0,2) | intensité de l'immunoréactivité (OD), Serum 11: - (pour une densité optique (OD) inférieure à 0,2) | intensité de l'immunoréactivité (OD), Serum 12: - (pour une densité optique (OD) inférieure à 0,2) | intensité de l'immunoréactivité (OD), Serum 13: - (pour une densité optique (OD) inférieure à 0,2) | intensité de l'immunoréactivité (OD), Serum 14: ++ (pour OD = 0,4 à 0,8) | intensité de l'immunoréactivité (OD), Serum 15: - (pour une densité optique (OD) inférieure à 0,2) | intensité de l'immunoréactivité (OD), Serum 16: - (pour une densité optique (OD) inférieure à 0,2) | intensité de l'immunoréactivité (OD), Serum 17: - (pour une densité optique (OD) inférieure à 0,2) | intensité de l'immunoréactivité (OD), Serum 18: - (pour une densité optique (OD) inférieure à 0,2) | intensité de l'immunoréactivité (OD), Serum 19: - (pour une densité optique (OD) inférieure à 0,2) | intensité de l'immunoréactivité (OD), Serum 20: - (pour une densité optique (OD) inférieure à 0,2) | intensité de l'immunoréactivité (OD), Serum 21: ++ (pour OD = 0,4 à 0,8) | intensité de l'immunoréactivité (OD), Serum 22: - (pour une densité optique (OD) inférieure à 0,2) | intensité de l'immunoréactivité (OD), Serum 23: - (pour une densité optique (OD) inférieure à 0,2) | intensité de l'immunoréactivité (OD), Serum 24: - (pour une densité optique (OD) inférieure à 0,2) | intensité de l'immunoréactivité (OD), Serum 25: - (pour une densité optique (OD) inférieure à 0,2) | intensité de l'immunoréactivité (OD), Serum 26: - (pour une densité optique (OD) inférieure à 0,2) | intensité de l'immunoréactivité (OD), Serum 27: - (pour une densité optique (OD) inférieure à 0,2) | intensité de l'immunoréactivité (OD), Serum 28: - (pour une densité optique (OD) inférieure à 0,2) | intensité de l'immunoréactivité (OD), Serum 29: - (pour une densité optique (OD) inférieure à 0,2) | intensité de l'immunoréactivité (OD), Serum 30: - (pour une densité optique (OD) inférieure à 0,2) | intensité de l'immunoréactivité (OD), Serum 31: - (pour une densité optique (OD) inférieure à 0,2) | intensité de l'immunoréactivité (OD), Serum 32: - (pour une densité optique (OD) inférieure à 0,2) | intensité de l'immunoréactivité (OD), Serum 33: - (pour une densité optique (OD) inférieure à 0,2)

XGGKWSKSSVVGWPTVRERMRRAEPAADGVGAASRDLEKHGAITSSNTA ATNAACAWLEAQEEEEVGZ [PF12, protéine F HIV-1, séquence 1-66]
nombre de sérums anti-nef positifs ayant réagi: 16 | intensité de l'immunoréactivité (OD), Serum 1: + (pour OD = 0,2 à 0,4) | intensité de l'immunoréactivité (OD), Serum 2: - (pour une densité optique (OD) inférieure à 0,2) | intensité de l'immunoréactivité (OD), Serum 3: +++ (pour OD = 0,8 à 2,0) | intensité de l'immunoréactivité (OD), Serum 4: + (pour OD = 0,2 à 0,4) | intensité de l'immunoréactivité (OD), Serum 5: - (pour une densité optique (OD) inférieure à 0,2) | intensité de l'immunoréactivité (OD), Serum 6: - (pour une densité optique (OD) inférieure à 0,2) | intensité de l'immunoréactivité (OD), Serum 7: +++ (pour OD = 0,8 à 2,0) | intensité de l'immunoréactivité (OD), Serum 8: +++ (pour OD = 0,8 à 2,0) | intensité de l'immunoréactivité (OD), Serum 9: +++ (pour OD = 0,8 à 2,0) | intensité de l'immunoréactivité (OD), Serum 10: - (pour une densité optique (OD) inférieure à 0,2) | intensité de l'immunoréactivité (OD), Serum 11: ++ (pour OD = 0,4 à 0,8) | intensité de l'immunoréactivité (OD), Serum 12: ++ (pour OD = 0,4 à 0,8) | intensité de l'immunoréactivité (OD), Serum 13: - (pour une densité optique (OD) inférieure à 0,2) | intensité de l'immunoréactivité (OD), Serum 14: ++ (pour OD = 0,4 à 0,8) | intensité de l'immunoréactivité (OD), Serum 15: - (pour une densité optique (OD) inférieure à 0,2) | intensité de l'immunoréactivité (OD), Serum 16: - (pour une densité optique (OD) inférieure à 0,2) | intensité de l'immunoréactivité (OD), Serum 17: - (pour une densité optique (OD) inférieure à 0,2) | intensité de l'immunoréactivité (OD), Serum 18: - (pour une densité optique (OD) inférieure à 0,2) | intensité de l'immunoréactivité (OD), Serum 19: +++ (pour OD = 0,8 à 2,0) | intensité de l'immunoréactivité (OD), Serum 20: - (pour une densité optique (OD) inférieure à 0,2) | intensité de l'immunoréactivité (OD), Serum 21: ++ (pour OD = 0,4 à 0,8) | intensité de l'immunoréactivité (OD), Serum 22: - (pour une densité optique (OD) inférieure à 0,2) | intensité de l'immunoréactivité (OD), Serum 23: - (pour une densité optique (OD) inférieure à 0,2) | intensité de l'immunoréactivité (OD), Serum 24: - (pour une densité optique (OD) inférieure à 0,2) | intensité de l'immunoréactivité (OD), Serum 25: +++ (pour OD = 0,8 à 2,0) | intensité de l'immunoréactivité (OD), Serum 26: +++ (pour OD = 0,8 à 2,0) | intensité de l'immunoréactivité (OD), Serum 27: - (pour une densité optique (OD) inférieure à 0,2) | intensité de l'immunoréactivité (OD), Serum 28: + (pour OD = 0,2 à 0,4) | intensité de l'immunoréactivité (OD), Serum 29: ++ (pour OD = 0,4 à 0,8) | intensité de l'immunoréactivité (OD), Serum 30: - (pour une densité optique (OD) inférieure à 0,2) | intensité de l'immunoréactivité (OD), Serum 31: +++ (pour OD = 0,8 à 2,0) | intensité de l'immunoréactivité (OD), Serum 32: - (pour une densité optique (OD) inférieure à 0,2) | intensité de l'immunoréactivité (OD), Serum 33: - (pour une densité optique (OD) inférieure à 0,2)
